# From patent US8865672B2, “Prevention of tissue ischemia and related methods” (The United States of America, as represented by the …, priority 2006, dated 2014)
# Experiments:
# murine ASMC (CD47 null) = test: Murine ASMC proliferation; type: cell-based, mouse; details: CD47 null MASMC
# Protocol: (§1) Murine ASMC were obtained from aortic segments harvested sterilely from C57B1/6 CD47 null or CD36 null mice as described (Ray et al., Methods Cell Sci 23:185-188, 2001) and cultured in SM-GM (Cambrex)+20% FCS. In the case of CD36 null cells, culture flasks were pre-coated with 1% gelatin prior to cell plating. Wild type C57B1/6 ASMC cultures were prepared as previously described (Isenberg et al., Matrix Biol 24:110-123, 2005). Cell culture purity was determined by immunohistochemistry staining for α-smooth muscle actin. Cells were used within passage 1 to 4 to minimize overgrowth of other cell types.
# Proliferation of vascular cells was measured with a non-radioactive colorimetric assay (CellTiter 96, Promega, Madison, Wis.). Briefly, to each well of a 96-well culture plate (Nunc, Denmark) 5×10^3 cells were suspended in 100 μl of culture medium with indicated treatments and incubated for 72 hours at 37° C. in a 5% CO2 atmosphere. Following incubation 20 μl of tetrazolium compound/solubilization agent was added and incubation continued for 4 hours under the same conditions. The plate was then read on a MR580 Microelisa Auto Reader (Dynatech) at a wavelength of 490 nm. Appropriate zero time controls were run for all assays and the optical density readings obtained then subtracted from those obtained at 72 hours.
# [1] = tested on: murine ASMC (WT, CD36 null, CD47 null); test: Intracellular cGMP in murine ASMC; type: cell-based, mouse; details: WT MASMC
# Protocol: as §1
# HUVEC (10^4 cells/well) grown overnight in 96-well culture plates containing full growth medium with 2% FCS and weaned in growth medium without additives and 1% FCS over 24 hrs before treatment with NO donors and other agents in SM-GM without additives+0.1% BSA. Intracellular cGMP levels were determined according to the manufacturer's instructions using an enzyme immunoassay kit (Amersham Biosciences). In other experiments ASMC from wild type and CD36 or CD47 null mice were plated onto 96-well culture plates and incubated overnight in full growth medium. They were then weaned off serum as described to SM-GM+0.1% BSA and treated with NO donor and other agents as indicated. Intracellular cyclic nucleotides were determined via immunoassay.
# human platelets [2] = test: Thrombin-induced human platelet aggregation; type: cell-based; details: DEA/NO 10 μM
# Outline: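 Washed human platelets in Tyrode's buffer pH 7.4 (2×10^5/μl) are stirred at 1200 rpm and 37 °C, and optical aggregation is followed for 5 min; under static conditions, A400 is tracked for 5 min instead. TSP1 agents or 1 μM peptide C6d are pre-incubated for 15 min before thrombin ± DEA/NO (10 μM).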
# human platelets [3] = test: cGMP in human platelets; type: cell-based; details: washed human platelets in Tyrode's buffer
# Protocol: (§2) Fresh human platelets at 2×10^5 platelets/μl in Tyrode's buffer or PRP were pre-incubated with the indicated agents for 15 minutes and then challenged with DEA/NO for the indicated time interval at room temperature and total cGMP determined via immunoassay (Amersham, GE Healthcare, Buckinghamshire, UK). Murine WT and TSP1-null platelets were treated with DEA/NO and cGMP flux measured.
# [4] = tested on: skeletal muscle blood oxygenation in mice; test: BOLD MRI of hindlimb muscle after NO challenge; type: in vivo, mouse; details: for magnitude of increased BOLD MRI signal: DEA/NO 100 nmol/g intrarectal
# Protocol: MRI images were acquired using a Bruker Biospin 4.7 T scanner and isoflurane anesthesia. Muscle tissue scanned was at rest, so alterations in oxygenation reflected changes in perfusion rather than in oxygen consumption (Krishna et al., Ilar J 42:209-218, 2001; Watterson et al., Cell Signal 17:289-298, 2005). MR measurements were started after the mouse's body temperature reached 37° C. Prior to the experiments, gradient echo based T1 sequence was used to determine the target slice location. A series of T2* weighted gradient echo blood oxygenation level dependent (BOLD) image data sets at transverse to the midpoint of the femur were repeatedly acquired for 30 min to monitor temporal changes in blood oxygenation and blood flow. DEA/NO (100 nmol/g body weight) was injected with saline via the rectal cannula 5.0 min after starting the scan. Imaging parameters used were: TR=450 ms, Flip angle=45, Nex=1, slice thickness=2 mm, matrix size=64×64, total imaging time for the series was 29 min.
# cGK-I = target: T1, cGK-I (Homo sapiens, UniProt Q13976); test: cGK in vitro kinase assay of platelet lysates; type: biochemical; details: activation via sGC using DEA/NO in intact platelets
# T1 construct: endogenous in cells; host or cells: washed human platelets, treated intact, then lysed
# T1 sequence (Q13976 1-686 isoform Q13976-2): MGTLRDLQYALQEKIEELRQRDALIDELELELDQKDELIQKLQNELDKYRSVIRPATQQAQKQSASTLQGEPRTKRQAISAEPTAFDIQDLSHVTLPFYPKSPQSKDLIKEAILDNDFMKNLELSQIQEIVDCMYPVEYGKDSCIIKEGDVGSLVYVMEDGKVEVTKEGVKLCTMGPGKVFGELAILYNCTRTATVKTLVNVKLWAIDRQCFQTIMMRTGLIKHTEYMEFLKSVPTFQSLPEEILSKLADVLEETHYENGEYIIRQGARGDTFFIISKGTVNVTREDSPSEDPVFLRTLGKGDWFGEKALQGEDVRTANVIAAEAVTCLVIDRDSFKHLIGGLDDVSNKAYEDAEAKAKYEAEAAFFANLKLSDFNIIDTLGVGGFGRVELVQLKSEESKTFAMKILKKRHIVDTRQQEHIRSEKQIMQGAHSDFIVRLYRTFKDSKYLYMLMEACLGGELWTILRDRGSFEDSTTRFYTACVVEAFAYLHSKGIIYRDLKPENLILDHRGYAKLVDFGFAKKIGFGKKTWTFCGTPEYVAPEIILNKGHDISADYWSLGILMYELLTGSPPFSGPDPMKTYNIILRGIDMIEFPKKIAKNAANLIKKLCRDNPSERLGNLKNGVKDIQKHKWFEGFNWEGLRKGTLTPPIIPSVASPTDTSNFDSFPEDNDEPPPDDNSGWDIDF
# Protocol: Platelets were washed as described above and resuspended in Tyrode's buffer (3×10^8 platelets/mL). Platelets were preincubated with TSP1 (2.2 nM) or Rp-8-pCPT-cGMP for 15 minutes prior to treatment with 8-Br-cGMP (100 μM) or NO (DEA/NO 10 μM) for 2 minutes. Treatment was stopped by placing the platelets on ice. Immediately following treatment, platelets were pelleted by centrifugation at 13,000×g at 4° C. for 15 seconds and resuspended in a lysis buffer containing 10 mM HEPES (pH 7.4), 1 mM EDTA, 1 mM 3-Isobutyl-1-methylxanthine, 125 mM KCl, 1 mM phenylmethysulfonylfluoride, 1 μg/ml aprotinin, and 1 μg/ml leupeptin. Resuspended platelets were sonicated on ice 3 times for 10 seconds each before centrifugation at 13,000×g for 5 minutes at 4° C. 100 μg lysate from each sample was incubated at 25° C. for 20 minutes with kinase buffer (150 μM Arg-Lys-Arg-Ser-Arg-Ala-Glu (SEQ ID NO: 17) peptide substrate (Bachem, King of Prussia, Pa.)), 10 mM HEPES pH 7.4, 35 mM β-glycerophosphate, 4 mM MgCl2, 5 μM Rp-8 pCPT-cAMPS, 0.5 mM EDTA, […] [γ-32P]ATPS (Sigma-Aldrich, St. Louis, Mo.)). Kinase assay reactions were terminated by spotting 50 μL of reaction mixture onto nitrocellulose. Nitrocellulose spots were washed 5 times each with 100 μL of 0.5% phosphoric acid before analysis with a scintillation counter.
# [5] = tested on: blood pressure and pulse in mice; test: Blood pressure and pulse measurements (tail cuff); type: in vivo, mouse; details: for blood pressure response: i.p.
# Protocol: Mean systolic, diastolic and arterial blood pressure (BP) and mean pulse was measured in age and sex matched mice using a computerized tail cuff system (Hatteras Systems, MC4000 Blood Pressure Analysis System, Cary, N.C.). The mice were allowed to acclimate to the apparatus for 5 min prior to the start of measurement. Each animal underwent a cycle of 10 preliminary and 50 experimental pressures measurements for data acquisition and data calculation. Animals were acclimated to the measuring system and protocol for 4 days with treatment with data acquisition being performed on the 5th day. Pressures recordings were performed at the same time each day. Data was accepted if the mouse had valid readings for at least 20 consecutive pulse beats. All studies were performed at the same hour each day.
# Respirations were monitored continuously monitored by direct observation of the animal. Body core temperature was measured via rectal probe. Temperature control was performed using a water-circulating warming surface and heating lamp. Following a 15 minute period of stabilization mean systolic, diastolic and arterial blood pressure and mean pulse measurements were determined.
# [6] = tested on: cutaneous perfusion in mice; type: in vivo, mouse; details: rectal catheter bolus, core temperature 34.5° C.
# Protocol: Skin blood flow was measured using laser Doppler imaging (MoorLD1-2λ, Moor Instruments, Devon, England). Briefly, animals were placed in a prone position on a heating pad, and anesthesia was provided by 2% inhalation isoflurane in a 50:50 mixture of oxygen to room air. Core temperature was monitored by rectal probe and was further controlled with a heat lamp. The hair of the dorsum of the animals was clipped and depilated with Nare™ and a template with a 1 cm^2 area used to trace a region of interest (ROI). After equilibration to the experimental set-up analysis of cutaneous blood flow was obtained. The following instrument settings were used: override distance 21 cm; scan time 4 msec/pixel. Results are expressed as the change percent control from baseline of the ROI.
# [7] = tested on: murine WT and TSP1-null platelets; test: cGMP in murine platelets; type: cell-based, mouse; details: 100 μM added to Tyrode's
# Protocol: After induction of general anesthesia with isoflurane 2%, age and sex matched C57BL/6 WT and TSP1-null mice underwent cardiac puncture. Blood was aspirated into 1 cc syringes with a 25 gauge needle containing 100 μl heparin (Heparin Lock Flush, Abbott, Chicago, Ill.), mixed with 100 μl 3% ACD and centrifuged in 1.2 ml S-Monovette separation tubes (Sarstedt, Germany). PRP was aspirated off, centrifuged, and the resulting platelet pellet was resuspended in 200 μl of Tyrode's buffer.
# as §2
molecule,measurement,setting,value
3TSR: recombinant type 1 repeats of TSP1,NO-stimulated proliferation,murine ASMC (CD47 null),failed to inhibit
same,NO-stimulated cGMP,[1],inhibited NO-stimulated cGMP responses in WT
same,NO delay of thrombin-induced platelet aggregation,"human platelets [2]; high shear, thrombin 0.2 U/ml",blocked the ability of NO to delay thrombin-induced aggregation
same,NO delay of thrombin-induced platelet aggregation,human platelets [2]; static / low shear conditions,reversed the NO delay of aggregation under static conditions
same,NO stimulated cGMP in platelets,human platelets [3],inhibited NO stimulated cGMP flux
"CCN(CC)/[N+]([O-])=N/O.CCNCC [DEA/NO, diethylamine NONOate]",magnitude of increased BOLD MRI signal,[4]; TSP1 null mice,25%
same,decreased BOLD signal,[4]; TSP null mice,14%
same,decreased BOLD signal,[4]; WT mice,11%
same,magnitude of increased BOLD MRI signal,[4]; WT mice,15%
same,32P-incorporation into cGK-I selective peptide,cGK-I,strongly induced 32P-incorporation
same,blood pressure response,[5]; TSP1 null versus wild type,significantly greater decreases in blood pressure measurements
same,mean pulse,[5]; after i.p. challenge,tended to increase modestly
same,blood pressure response,[5]; awake wild type and TSP1-null mice,"significant decreases in systolic, diastolic and mean arterial pressure"
same,initial increase in cutaneous perfusion,[6],significantly greater in TSP1 and CD47 null mice
"N=C(N)NCCC[C@H](N)C(=O)O [L-arginine, reference compound]",platelet cGMP levels,[7],elevated cGMP levels in TSP1-null but not in WT platelets
